Experimental findings from ChEMBL document CHEMBL1134825, “Semi-synthesis of 2-deoxo- and 3-epi-paraherquamide A” (Bioorg Med Chem Lett, 2001) are described below.

For one data set, the system named is helminth. The experiment in a line: Compound was tested for antihelminthic activity; No activity. In kind it is functional.
A short description of data set [1]: Lethal dose in mice was determined. The data set is classed as toxicity, organism-based. As to conditions: mouse, in vivo.
A short description of data set [2]: Lethal dose in dog was determined. The data set is classed as toxicity, organism-based, Canis lupus familiaris. The note with it: in vivo.

Active and inactive are the calls of the source. No cut-off for these calls is given here.

The LD50 is the dose expected to kill half of the subjects tested.

Turning to `CN1C(=O)[C@]23CC4C1(CN2CC[C@@]3(C)O)CC1(C(=O)Nc2c1ccc1c2OC=CC(C)(C)O1)C4(C)C` (stereo partly drawn), the result with helminth was inactive. For the compound `CN1C(=O)[C@]23C[C@@H]4C(C)(C)[C@@]5(C[C@@]41CN2CC[C@@]3(C)O)C(=O)Nc1c5ccc2c1OC=CC(C)(C)O2` [Paraherquamide A], the median lethal dose (LD50) is below 15 mg/kg in data set [1] and 0.5 mg/kg in data set [2].
